Experimental data as given in the NIST ThermoML archive (doi:10.1016/j.jct.2011.08.009).
Values joined by “and” are separate entries in the source; they are usually repeats but may differ in a detail not shown here. Identical values can stand only once. Numbers after ± are expanded uncertainties.

Details: Liquid, Closed cell (Static) method

Compound | vapor or sublimation pressure (273.15 K) | vapor or sublimation pressure (283.15 K) | vapor or sublimation pressure (293.15 K) | vapor or sublimation pressure (293.88 K) | vapor or sublimation pressure (303.15 K) | vapor or sublimation pressure (303.84 K) | vapor or sublimation pressure (313.15 K) | vapor or sublimation pressure (313.81 K) | vapor or sublimation pressure (323.15 K) | vapor or sublimation pressure (323.92 K) | vapor or sublimation pressure (333.15 K) | vapor or sublimation pressure (343.15 K) | vapor or sublimation pressure (353.15 K) | vapor or sublimation pressure (363.15 K) | also measured
NC1CCCCC1 [cyclohexylamine] | 0.2306 ± 0.011 kPa | 0.4646 ± 0.013 kPa | 0.8833 ± 0.018 kPa | 0.9229 ± 0.0085 kPa and 0.9217 ± 0.0085 kPa | 1.596 ± 0.021 kPa | 1.661 ± 0.011 kPa | 2.756 ± 0.024 kPa | 2.854 ± 0.014 kPa | 4.573 ± 0.03 kPa | 4.755 ± 0.018 kPa | 7.32 ± 0.039 kPa | 11.35 ± 0.052 kPa | 17.98 ± 0.073 kPa | 25.06 ± 0.095 kPa | vapor or sublimation pressure (274.3 K): 0.2512 ± 0.0031 kPa; vapor or sublimation pressure (283.86 K): 0.4861 ± 0.005 kPa; vapor or sublimation pressure (293.83 K): 0.9213 ± 0.0085 kPa; vapor or sublimation pressure (293.86 K): 0.9213 ± 0.0085 kPa; vapor or sublimation pressure (303.79 K): 1.661 ± 0.011 kPa; vapor or sublimation pressure (303.82 K): 1.66 ± 0.011 kPa; vapor or sublimation pressure (313.79 K): 2.852 ± 0.014 kPa; vapor or sublimation pressure (323.97 K): 4.757 ± 0.018 kPa; vapor or sublimation pressure (323.99 K): 4.757 ± 0.018 kPa and 4.758 ± 0.018 kPa; vapor or sublimation pressure (334 K): 7.563 ± 0.025 kPa; vapor or sublimation pressure (344 K): 12.08 ± 0.035 kPa; vapor or sublimation pressure (354.06 K): 17.65 ± 0.048 kPa; vapor or sublimation pressure (364.1 K): 25.96 ± 0.064 kPa; vapor or sublimation pressure (364.13 K): 25.94 ± 0.064 kPa and 25.96 ± 0.064 kPa
O [water] | 0.5817 ± 0.014 kPa | 1.186 ± 0.021 kPa | 2.281 ± 0.023 kPa | – | 4.172 ± 0.029 kPa | – | 7.294 ± 0.039 kPa | – | 12.25 ± 0.055 kPa | – | 19.84 ± 0.08 kPa | 31.11 ± 0.12 kPa | 47.37 ± 0.17 kPa | 70.25 ± 0.24 kPa | –
CCC(C)N (stereo unspecified) [2-butanamine] | – | – | 18.43 ± 0.084 kPa | 19.21 ± 0.056 kPa | 29.11 ± 0.12 kPa | 30.04 ± 0.081 kPa and 30.03 ± 0.081 kPa | 44.25 ± 0.18 kPa | 45.47 ± 0.12 kPa and 45.38 ± 0.12 kPa | 65.05 ± 0.26 kPa | 66.77 ± 0.16 kPa | 92.82 ± 0.36 kPa | 128.99 ± 0.5 kPa | 175.09 ± 0.67 kPa | 232.69 ± 0.88 kPa | vapor or sublimation pressure (274.06 K): 6.81 ± 0.027 kPa; vapor or sublimation pressure (274.09 K): 6.804 ± 0.027 kPa; vapor or sublimation pressure (283.91 K): 11.46 ± 0.038 kPa; vapor or sublimation pressure (333.91 K): 95.07 ± 0.22 kPa and 95.08 ± 0.22 kPa and 95.1 ± 0.22 kPa; vapor or sublimation pressure (343.86 K): 132.08 ± 0.3 kPa and 132.05 ± 0.3 kPa; vapor or sublimation pressure (353.9 K): 179.16 ± 0.39 kPa and 178.99 ± 0.39 kPa
